Assay [1] in a line: Binding affinity to SARS-CoV-2 MPro C145A mutant assessed as dissociation constant by isothermal titration calorimetry assay. Set-up: species or system Severe acute respiratory syndrome coronavirus 2. (In general: In ITC the heat of successive injections is recorded.)
Assay [2] in a line: Binding affinity to SARS-CoV-2 PLpro C111A mutant assessed as dissociation constant by isothermal titration calorimetry assay. The arrangement: species or system Severe acute respiratory syndrome coronavirus 2.

As for `Cl.O=C1C=C(Nc2ccccc2N2CCNCC2)C2=NS(=O)(=O)c3cccc1c32`, the Kd in assay [1] amounted to 1.5 µM; in assay [2], 2.3 µM.

Usually Kd stands for the concentration at which binding is half-saturated.

For the origin of these results see ChEMBL document CHEMBL5150074, “Structure-Based Design of a Dual-Targeted Covalent Inhibitor Against Papain-like and Main Proteases of SARS-CoV-2” (J Med Chem, 2022).
